Measurements reported in BindingDB's records for doi:10.1016/0014-2999(96)00428-1 (Glaxo Research & Development, 1996).
Several values for one entry are separate records, joined by “and”; a condition that tells them apart may be missing. Equal entries are not always repeated.

Molecular target: Hrh3 protein (Rattus norvegicus, UniProt Q5PPG3)
Sequence (Q5PPG3 whole entry): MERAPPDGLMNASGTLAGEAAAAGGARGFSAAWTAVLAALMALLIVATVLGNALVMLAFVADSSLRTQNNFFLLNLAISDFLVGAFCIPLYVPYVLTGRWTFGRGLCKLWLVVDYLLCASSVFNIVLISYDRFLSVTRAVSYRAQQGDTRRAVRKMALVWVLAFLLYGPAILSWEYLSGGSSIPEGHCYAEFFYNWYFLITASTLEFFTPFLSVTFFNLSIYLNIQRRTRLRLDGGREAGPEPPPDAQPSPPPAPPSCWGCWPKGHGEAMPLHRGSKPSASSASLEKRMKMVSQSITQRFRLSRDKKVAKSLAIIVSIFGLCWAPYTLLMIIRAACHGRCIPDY

Row | Structure (SMILES) | Ki
1 | CN/C([CH-][N+](=O)[O-])=[NH+]\CCSCc1ccc(CN(C)C)o1 | 5010 nM and > 10000 nM
2 | COc1ccc(CN(CCN(C)C)c2ccccn2)cc1 | 7940 nM and > 10000 nM
3 | NC(=NC1CCCCC1)N1CCC(c2cnc[nH]2)CC1 [GR-168320] | 0.15 nM and 0.19 nM

Other lines, results leading:

Row | Ki | Structure (SMILES)
4 | 19.9 nM and 12.6 nM | Cc1[nH]cnc1CSCCNC(=N)NCCCc1c[nH]cn1 [2-[3-(1H-imidazol-5-yl)propyl]-1-(2-{[(5-methyl-1H-imidazol-4-yl)methyl]sulfanyl}ethyl)guanidine]
5 | 63.1 nM | CNC(=S)NCCCCc1cnc[nH]1 [1-[4-(1H-imidazol-5-yl)butyl]-3-methylthiourea]
